Experimental data published in US20260347403A1, “FUNGICIDAL COMPOUND” (priority 2022, published 2026).
Numbered stars: 1 amine (or outer) side, 2 acyl side, 3 side chain; on linkers, the order of the positions; unused ones are H or OH. Bridge positions count the residues as written; N and C are the ends. Square brackets hold non-standard residues; d marks the D form. Peptide text beside a SMILES is read from it. * marks the point of attachment. Tridecanoyl(12-Me) = CC(C)CCCCCCCCCCC(=O)*; X1 = NC(=O)CC(O)C(N[*:1])C(=O)[*:2]; NMeF = CN[CH](Cc1ccccc1)C(=O)O; NMeN = CN[CH](CC(N)=O)C(=O)O; X2 = CCC(C)CCCCCCCCCCC(=O)*

Key:
Assay type in all cases: cell-based
[1] = system: Microdochium nivale; experiment: Liquid culture 96-well mixture assay with malonomicin, Microdochium nivale, 72 hrs; conditions: read-out: control of fungal growth (% reduction)
Experimental: (§1) A stock solution for compound of Formula I(a) was produced in DMSO (max. 10 mg/ml). Malonomicin was produced according to Law et al, 2018 (Nature Catalys is |VOL 1|DECEMBER 2018|977-984). A stock solution of malonomicin was produced in water plus 0.025% Tween® 20.
(§2) Assays to test efficacy of mixtures of the lipopeptide compound of Formula I(a) in combination with malonomicin on the control of fungal pathogens in a liquid culture assay were designed for a 96well plate as outlined in table 1:
(§3) The 96 well plate design allows to compare disease control of the mixture with disease control of the respective single compound at the same rate.
(§4) A master plate with 10× concentrated solution of the compound stock solutions diluted in water plus 0.025% Tween® 20 was prepared. The concentration of DMSO (from the stock of compound of Formula (a)) and Tween® 20 was kept constant in all cells of the master plate. 10 μl was transferred from the master plate to a 96well test plate. The nutrient broth containing the fungal spores/mycelia fragments was then added to the test plate to give an end concentration of 1× for the tested compounds (as outlined in Table 8). The test plates were incubated in the dark at 24 °C and 96% rh. The inhibition of fungal growth was determined photometrically after ca 3 days, and percent fungal growth reduction relative to the untreated check was calculated.
Microdochium nivale (EPPO Code: MONGNI)
(§5) Conidia of the fungus from cryogenic storage were directly mixed into nutrient broth (PDB: potato dextrose broth).

[2] = system: Botryotinia fuckeliana; experiment: Liquid culture, Botryotinia fuckeliana (Botrytis cinerea), Gray Mould, 3-4 days
Experimental: Mycelia fragments or conidia suspensions of a fungus, prepared either freshly from liquid cultures of the fungus or from cryogenic storage, were directly mixed into nutrient broth.
A stock solution for compound of Formula I(a) and Formula I(b) was produced in DMSO (max. 10 mg/ml), which was diluted with water plus 0.025% Tween®20 to produce a 10× concentrated sample and 10 μl of this solution was pipetted into a microtiter plate (96-well format). The nutrient broth containing the fungal spores/mycelia fragments was then added to give an end concentration of the tested compound. The test plates were incubated in the dark at 24 °C and 96% rh. The inhibition of fungal growth was determined photometrically after 2-7 days, depending on the pathosystem, and percent antifungal activity relative to the untreated check was calculated.
The effect of the test compound (Formula I(a), I(b) and Lipopeptin A) was tested against the following fungi under the conditions as outlined above and specifically herein below:
Botryotinia fuckeliana (Botrytis cinerea)/Liquid Culture (Gray Mould)
Conidia of the fungus from cryogenic storage were directly mixed into nutrient broth (Vogels broth). The inhibition of growth is determined photometrically 3-4 days after application.

[3] = system: Fusarium culmorum; experiment: Liquid culture 96-well mixture assay with malonomicin, Fusarium culmorum, 72 hrs; conditions: read-out: control of fungal growth (% reduction)
Experimental: as §1, §2, §3, §4
Fusarium culmorum (EPPO Code: FUSACU)
as §5

[4] = system: Botrytis cinerea; experiment: Liquid culture 96-well mixture assay with malonomicin, Botrytis cinerea, 72 hrs; conditions: line H malonomicin alone, concentrations in Table 8
Experimental: as §1, §2, §3, §4
Botrytis cinerea (EPPO Code: BOTRCI)
Conidia of the fungus from cryogenic storage were directly mixed into nutrient broth (Vogel's minimal media).

[5] = system: Cercospora arachidicola; experiment: Liquid culture 96-well mixture assay with malonomicin, Cercospora arachidicola, 5-6 days; conditions: line H malonomicin alone, concentrations in Table 8
Experimental: as §1, §2, §3
as §4, with “The inhibition of fungal growth was determined photometrically after ca 3 days, and percent fungal growth reduction relative to the untreated check was calculated.” left out
Cercospora arachidicola (EPPO Code: MYCOAR)
as §5

[6] = plate column (2), highest malonomicin concentration, lines A-G with compound of Formula I(a) dilution series
[7] = plate column (3) of malonomicin dilution series, lines A-G with compound of Formula I(a)
[8] = plate column (4) of malonomicin dilution series, lines A-G with compound of Formula I(a)
[9] = plate column (5) of malonomicin dilution series, lines A-G with compound of Formula I(a)
[10] = plate column (6) of malonomicin dilution series, lines A-G with compound of Formula I(a)
[11] = plate column (7) of malonomicin dilution series, lines A-G with compound of Formula I(a)
[12] = plate column (8) of malonomicin dilution series, lines A-G with compound of Formula I(a)
[13] = plate column (9) of malonomicin dilution series, lines A-G with compound of Formula I(a)
[14] = plate column (10) of malonomicin dilution series, lines A-G with compound of Formula I(a)
[15] = plate column (11), lowest malonomicin concentration, lines A-G with compound of Formula I(a)

CC(C)CCCCCCCCCCC(=O)NC1C(=O)NC(CC(=O)O)C(=O)NC(C(O)CC(N)=O)C(=O)NC(CO)C(=O)N(C)C(CC(N)=O)C(=O)N(C)C(Cc2ccccc2)C(=O)NC(CCC(N)=O)C(=O)NC(CCC(=O)O)C(=O)OC1C (stereo not shown) [Formula I(a)] ({Tridecanoyl(12-Me)}-TD[X1]S[NMeN][NMeF]QE; ester 1-C; configuration not given here)
70%: % reduction fungal growth ([2]; Table 3, 33 ppm) | % reduction fungal growth ([2]; Table 3, 100 ppm)
50%: % reduction fungal growth ([2]; Table 2, 100 ppm) | % reduction fungal growth ([2]; Table 3, 3.7 ppm) | % reduction fungal growth ([2]; Table 3, 11 ppm)
0%: inhibition of growth at 1.56 µg/mL ([1]; I(a) 1.56 ppm) | inhibition of growth at 3.125 µg/mL ([1]; I(a) 3.125 ppm) | inhibition of growth at 6.25 µg/mL ([1]; I(a) 6.25 ppm) | inhibition of growth at 12.5 µg/mL ([1]; I(a) 12.5 ppm) | inhibition of growth at 25 µg/mL ([1]; I(a) 25 ppm) | inhibition of growth at 50 µg/mL ([1]; I(a) 50 ppm) | inhibition of growth at 100 µg/mL ([1]; I(a) 100 ppm) | % reduction fungal growth ([2]; Table 2, 0.41 ppm) | % reduction fungal growth ([2]; Table 2, 1.2 ppm) | % reduction fungal growth ([2]; Table 2, 3.7 ppm) | % reduction fungal growth ([2]; Table 2, 11 ppm) | % reduction fungal growth ([2]; Table 2, 33 ppm) | inhibition of growth at 1.56 µg/mL ([3]; I(a) 1.56 ppm) | inhibition of growth at 3.125 µg/mL ([3]; I(a) 3.125 ppm) | inhibition of growth at 6.25 µg/mL ([3]; I(a) 6.25 ppm) | inhibition of growth at 12.5 µg/mL ([3]; I(a) 12.5 ppm) | inhibition of growth at 25 µg/mL ([3]; I(a) 25 ppm) | inhibition of growth at 50 µg/mL ([3]; I(a) 50 ppm) | inhibition of growth at 100 µg/mL ([3]; I(a) 100 ppm)

CCC(C)CCCCCCCCCCC(=O)NC1C(=O)NC(CC(=O)O)C(=O)NC(C(O)CC(N)=O)C(=O)NC(CO)C(=O)N(C)C(CC(N)=O)C(=O)N(C)C(Cc2ccccc2)C(=O)NC(CCC(N)=O)C(=O)NC(CCC(=O)O)C(=O)OC1C (stereo not shown) [Formula I(b)] (X2-TD[X1]S[NMeN][NMeF]QE; ester 1-C; configuration not given here)
50%: % reduction fungal growth ([2]; Table 2, 100 ppm) | % reduction fungal growth ([2]; Table 3, 11 ppm) | % reduction fungal growth ([2]; Table 3, 33 ppm)
70%: % reduction fungal growth ([2]; Table 3, 100 ppm)
0%: % reduction fungal growth ([2]; Table 2, 0.41 ppm) | % reduction fungal growth ([2]; Table 2, 1.2 ppm) | % reduction fungal growth ([2]; Table 2, 3.7 ppm) | % reduction fungal growth ([2]; Table 2, 11 ppm) | % reduction fungal growth ([2]; Table 2, 33 ppm)

NC[C@@H]1NC(=O)C(C(=O)CC(NC(=O)[C@@H](N)CO)(C(=O)O)C(=O)O)=C1O [malonomicin, {[(2S)-2-amino-3-hydroxypropanoyl]amino}{2-[(5S)-5-(aminomethyl)-4-hydroxy-2-oxo-2,5-dihydro-1H-pyrrol-3-yl]-2-oxoethyl}malonic acid]
100%: control of fungal growth (% reduction of growth in the test well as compared to untreated check) [5, 6] | inhibition of growth at 250 ppm ([1]; malonomicin 250 ppm) | inhibition of growth at 500 ppm ([1]; malonomicin 500 ppm) | inhibition of growth at 1000 ppm ([1]; malonomicin 1000 ppm)
0%: control of fungal growth (% reduction of growth in the test well as compared to untreated check) [4, 12] | control of fungal growth (% reduction of growth in the test well as compared to untreated check) [4, 13] | control of fungal growth (% reduction of growth in the test well as compared to untreated check) [4, 14] | control of fungal growth (% reduction of growth in the test well as compared to untreated check) [4, 15] | control of fungal growth (% reduction of growth in the test well as compared to untreated check) [5, 14] | control of fungal growth (% reduction of growth in the test well as compared to untreated check) [5, 15] | inhibition of growth at 1 ppm ([3]; malonomicin 1.00 ppm) | inhibition of growth at 3 ppm ([3]; malonomicin 3.00 ppm) | inhibition of growth at 7.81 ppm ([3]; malonomicin 7.81 ppm) | inhibition of growth at 15.63 ppm ([3]; malonomicin 15.63 ppm) | inhibition of growth at 31.25 ppm ([3]; malonomicin 31.25 ppm) | inhibition of growth at 62.5 ppm ([3]; malonomicin 62.5 ppm)
20%: control of fungal growth (% reduction of growth in the test well as compared to untreated check) [4, 11] | control of fungal growth (% reduction of growth in the test well as compared to untreated check) [5, 12] | control of fungal growth (% reduction of growth in the test well as compared to untreated check) [5, 13] | inhibition of growth at 1 ppm ([1]; malonomicin 1.00 ppm) | inhibition of growth at 3 ppm ([1]; malonomicin 3.00 ppm) | inhibition of growth at 7.81 ppm ([1]; malonomicin 7.81 ppm) | inhibition of growth at 15.63 ppm ([1]; malonomicin 15.63 ppm) | inhibition of growth at 31.25 ppm ([1]; malonomicin 31.25 ppm) | inhibition of growth at 125 ppm ([3]; malonomicin 125 ppm) | inhibition of growth at 250 ppm ([3]; malonomicin 250 ppm) | inhibition of growth at 500 ppm ([3]; malonomicin 500 ppm) | inhibition of growth at 1000 ppm ([3]; malonomicin 1000 ppm)
90%: control of fungal growth (% reduction of growth in the test well as compared to untreated check) [5, 7] | inhibition of growth at 125 ppm ([1]; malonomicin 125 ppm)
50%: control of fungal growth (% reduction of growth in the test well as compared to untreated check) [5, 10] | control of fungal growth (% reduction of growth in the test well as compared to untreated check) [5, 11] | inhibition of growth at 62.5 ppm ([1]; malonomicin 62.5 ppm)
70%: control of fungal growth (% reduction of growth in the test well as compared to untreated check) [4, 6] | control of fungal growth (% reduction of growth in the test well as compared to untreated check) [4, 7] | control of fungal growth (% reduction of growth in the test well as compared to untreated check) [4, 8] | control of fungal growth (% reduction of growth in the test well as compared to untreated check) [4, 9] | control of fungal growth (% reduction of growth in the test well as compared to untreated check) [4, 10] | control of fungal growth (% reduction of growth in the test well as compared to untreated check) [5, 8] | control of fungal growth (% reduction of growth in the test well as compared to untreated check) [5, 9]
